Reference: the NIST ThermoML archive (doi:10.1016/j.fluid.2013.11.030)
± gives the expanded uncertainty stated by the source.

Conditions: Liquid, Ebulliometric method (Recirculating still)

Structure (SMILES): CCCCCCBr [1-bromohexane]
- vapor or sublimation pressure (428.5 K): 101.33 ± 1.5 kPa

Structure (SMILES): Cn1ccnc1 [1-methylimidazole]
- vapor or sublimation pressure (471.6 K): 101.33 ± 1.4 kPa

Structure (SMILES): CC(C)=O [acetone]
- vapor or sublimation pressure (329.3 K): 101.33 ± 1.5 kPa
